{"source": "patent US20250231157A1", "about": "“METHOD FOR DETERMINING THE PARTITION OF NAPHTHENIC ACIDS FROM A PRODUCTION WATER MIMICKING SYSTEM AND MIMICKING SYSTEM” (PETRÓLEO BRASILEIRO S.A. – PETROBRAS, priority 2023, published 2025)", "key": {"[1]": {"experiment": "Partition equilibrium under the influence of salinity (NaCl), glass reactor, neutralization titration", "format": "physicochemical", "experimental": "The variation in salinity (and its effect on acidic species) is due to the large variation in salinity found between the portions of bottom-hole water, middle-well water and surface water. Thus, systems with salinity (i.e., NaCl) between 3.5 and 30% (m·v^−1) were tested in a glass reactor, and neutralization titration was performed (in triplicate analysis), as previously described. Furthermore, the experimental results were generated in triplicate, using 99% NaCl (Sigma-Aldrich) with five acidic species."}, "[2]": {"experiment": "Partition equilibrium with addition of calcium and strontium salts to the aqueous phase", "format": "physicochemical", "conditions": "for Effect of strontium ions on migration to the aqueous phase: strontium 400-2600 mg·L^−1", "experimental": "The addition of salts to the reaction system is of fundamental importance when one intends to mimic field conditions. In this sense, in addition to continuing the study of the salinity effect (Example 4), the insertion of salts containing Ca^2+ and Sr^2+ ions, known to be present in seawater, was tested. To this end, the projects were based on the literature (Zheng, J. et al. Offshore produced water management: A review of current practice and challenges in harsh/Arctic environments. Mar. Pol. Bul. 2016, 104, 7-19) and four concentrations of each of the two ions were evaluated (400.0, 1200.0, 2600.0 and 9000.0 mg·L^−1), maintaining salinity at 3.5% (m·v^−1).\nIn short, the experimental results were generated in triplicate, using 99% NaCl to add salinity to the aqueous fraction and PA calcium chloride and PA strontium chloride to add calcium and strontium, respectively.\nThe addition of calcium and strontium to the reaction system, in the form of salts, aims at mimicking the real scenario in which both species are present (regardless of the salinity of the medium), especially in the well condition. This study aimed at understanding the effect (on the migration of acids to the organic phase) of this ion in the system also at concentrations higher than 10 mM. Finally, the experiments (in triplicate) with divalent strontium ions followed the same rationale."}, "[3]": {"experiment": "Control experiments: availability of the species in alkaline aqueous medium without using the reactor", "format": "physicochemical", "conditions": "acid solubilized directly in aqueous phase, no reactor", "experimental": "Previously, the back titration procedure was internalized and optimized (Example 1), ensuring that the reproducibility of the measurements was adequate (standard deviation values below 10%, for example) and that the recoveries were close to what was expected based on the purity of the reagents (i.e., close to or above 90%). […] Control experiments were performed (measuring the availability of the species in an aqueous medium, without using the reactor) by solubilizing the organic acid directly in the aqueous phase and titrating a 10.0 mL aliquot; the same way, experiments were performed in the reactor based on the standardization of heptol and salinity already discussed (3.5%)."}, "[4]": {"experiment": "Partition equilibrium in the presence of surfactants (TBA, CTA, TMA)", "format": "physicochemical", "text": "The presence of chemical compounds usually added in the chain of unit operations of oil extraction and production, such as demulsifiers and surfactants, can affect the partition equilibrium of species in this water/oil system. In order to understand the extent of this effect, as well as discern the relevance of the chemical structure on this effect, the following items were chosen: • Dissolvan 961 (Clariant), composed of oil hydrocarbons (CAS 918-811-1) and ethanol (CAS 64-17-5); • Dissolvan 974 (Clariant), composed of EO-PO block polymer poly adducts and Bisphenol-A-diglycidyl ether (CAS 68123-18-2) and ethanol (CAS 64-17-5); • Tetrabutylammonium chloride (CAS 1112-67-0), 97% purity; • Cetyltrimethylammonium chloride (CAS 112-02-7), 25% in water; and • Trimethylammonium chloride (CAS 593-81-7), 98% purity.\nFor this study, the experiments (in triplicate) used between 100.0 and 1000.0 mg·L^−1 of each compound, comparing the results with control tests (absence of the component), all with constant salinity at 3.5% (m·v^−1). Finally, neutralization titration with a standardized NaOH titrant solution was used to determine the effect on the partition equilibrium for four acidic species (the same as in the other examples, except for dicyclohexylacetic acid).\nConsidering the study with surfactants, the (individual) addition of three species to the control system was evaluated (tetrabutylammonium chloride (TBA), tetramethylammonium chloride (TMA) and cetyltrimethylammonium chloride (CTA)). For this purpose, the surfactants have distinct chemical structures, namely the size of the side chain, and their eventual effect on the partition equilibrium of the acidic species was evaluated."}, "[5]": {"experiment": "Partition equilibrium in the presence of demulsifiers (Dissolvan 961, Dissolvan 974)"}, "[6]": {"experiment": "Partition equilibrium in reactor pressurized with CO2, in presence and absence of alkalinity (NaHCO3, Na2CO3), back titration", "description": "In the initial tests, 100 mL of heptol and 300 mL of water (with or without salinity) were used, with the addition of acidic species in the organic phase, in order to verify migration to the aqueous phase. As a rule, the system was kept under agitation at 500 rpm for 8 min, followed by rest for 10 min and, finally, collection of 50.0 mL aliquots of the aqueous phase for titrimetric analysis.\nA 316 stainless steel alloy reactor (Parr®) (capacity for 600 mL and operational up to 20 MPa pressure) was used. For this purpose, a temperature range between 25° C. and 80° C. and pressure between 0.1 MPa and 1.0 MPa were used, and the reactor was pressurized with CO2. Thus, the results were compared (in terms of migration of the acidic species (%, mol) by means of back titrations) and the influence of pressure and temperature on the partition was estimated, as well as possible synergistic effects with the sources of alkalinity added to the aqueous phase."}, "[7]": {"experiment": "Partition equilibrium under the influence of salinity (NaCl), glass reactor, neutralization titration", "format": "physicochemical", "conditions": "Salinity 0 (%, m · m^−1) NaCl"}, "[8]": {"conditions": "Salinity 3.5 (%, m · m^−1) NaCl"}, "[9]": {"conditions": "Salinity 18.0 (%, m · m^−1) NaCl"}, "[10]": {"conditions": "Salinity 30.0 (%, m · m^−1) NaCl"}, "[11]": {"conditions": "Calcium 400 mg · L^−1, salinity 3.5%"}, "[12]": {"conditions": "Calcium 1200 mg · L^−1, salinity 3.5%"}, "[13]": {"conditions": "Calcium 2600 mg · L^−1, salinity 3.5%"}, "[14]": {"conditions": "Strontium 400 mg · L^−1, salinity 3.5%"}, "[15]": {"conditions": "Strontium 1200 mg · L^−1, salinity 3.5%"}, "[16]": {"conditions": "Strontium 2600 mg · L^−1, salinity 3.5%"}}}
{"smiles": "O=C(O)CCCCc1ccccc1", "note": "[5-Phenylpentanoic Acid, 5-phenylpentanoic acid]", "values": [{"measurement": "Salting out effect (reduction in the number of moles contained in the aqueous phase)", "setting": "[1]; 30% (m·v^−1) NaCl versus tests without salinity", "result": "~38", "unit": "%"}, {"measurement": "Migration", "setting": "[1]; [8]", "result": "13.2 %, mol"}, {"measurement": "Migration", "setting": "[1]; [9]", "result": "15.4 %, mol"}, {"measurement": "Migration", "setting": "[1]; [10]", "result": "15.4 %, mol"}, {"measurement": "Migration", "setting": "[2]; Absence of ions, salinity 3.5%", "result": "10.4 %, mol"}, {"measurement": "Migration", "setting": "[2]; [11]", "result": "5.5 %, mol"}, {"measurement": "Migration", "setting": "[2]; [12]", "result": "4.7 %, mol"}, {"measurement": "Migration", "setting": "[2]; [13]", "result": "3.4 %, mol"}, {"measurement": "Migration", "setting": "[2]; [14]", "result": "4.4 %, mol"}, {"measurement": "Migration", "setting": "[2]; [15]", "result": "5.3 %, mol"}, {"measurement": "Migration", "setting": "[2]; [16]", "result": "4.8 %, mol"}, {"measurement": "Effect of calcium ion on migration to the aqueous phase", "setting": "[2]; calcium up to the maximum study concentrations", "result": "no variation in migration"}, {"measurement": "Effect of strontium ions on migration to the aqueous phase", "setting": "[2]", "result": "decreased migration"}, {"measurement": "Availability (reference value)", "setting": "[3]; Na2CO3 + NaHCO3 (3.48×10^−5 mol)", "result": 100.0, "unit": "% mol"}, {"measurement": "Availability (reference value)", "setting": "[3]; NaHCO3 (3.45×10^−5 mol)", "result": 100.0, "unit": "% mol"}, {"measurement": "Migration", "setting": "[4]; Absence of surfactant, salinity 3.5%", "result": "10.4 %, mol"}, {"measurement": "Migration", "setting": "[4]; CTA100 (cetyltrimethylammonium chloride 100 mg · L^−1)", "result": "11.5 %, mol"}, {"measurement": "Migration", "setting": "[4]; CTA1000 (1000 mg · L^−1)", "result": "52.6 %, mol"}, {"measurement": "Migration", "setting": "[4]; TBA100 (tetrabutylammonium chloride 100 mg · L^−1)", "result": "22.0 %, mol"}, {"measurement": "Migration", "setting": "[4]; TBA1000 (1000 mg · L^−1)", "result": "21.6 %, mol"}, {"measurement": "Migration", "setting": "[4]; TMA100 (trimethylammonium chloride 100 mg · L^−1)", "result": "9.4 %, mol"}, {"measurement": "Migration", "setting": "[4]; TMA1000 (1000 mg · L^−1)", "result": "9.1 %, mol"}, {"measurement": "Increase in migration to the aqueous phase with CTA", "setting": "[4]; surfactant CTA, 1000 mg·L^−1", "result": "~500", "unit": "%"}, {"measurement": "Increase in the tendency to migrate to the aqueous phase with TBA", "setting": "[4]; surfactant TBA, noticeable from 100 mg·L^−1", "result": 100, "unit": "%"}, {"measurement": "Effect of TMA on partition equilibrium", "setting": "[4]; surfactant TMA", "result": "no observable effect"}, {"measurement": "Increase in migration to the aqueous phase with demulsifier", "setting": "[5]; 50 mg·L^−1 of D961", "result": "approximately 100%"}, {"measurement": "Migration", "setting": "[5]; Absence of ions (no demulsifier), salinity 3.5%", "result": "10.4 %, mol"}, {"measurement": "Migration", "setting": "[5]; D961 50 mg · L^−1", "result": "21.0 %, mol"}, {"measurement": "Migration", "setting": "[5]; D961 100 mg · L^−1", "result": "21.0 %, mol"}, {"measurement": "Migration", "setting": "[5]; D961 1000 mg · L^−1", "result": "23.0 %, mol"}, {"measurement": "Migration", "setting": "[5]; D974 50 mg · L^−1", "result": "18.0 %, mol"}, {"measurement": "Migration", "setting": "[5]; D974 100 mg · L^−1", "result": "16.0 %, mol"}, {"measurement": "Migration", "setting": "[5]; D974 1000 mg · L^−1", "result": "14.6 %, mol"}, {"measurement": "Migration", "setting": "[6]; 25° C. and 1.0 MPa CO2, no alkalinity", "result": "did not generate quantifiable results"}, {"measurement": "Migration", "setting": "[6]; Na2CO3 + NaHCO3, 25° C. and 0.1 MPa", "result": 100.0, "unit": "% mol"}, {"measurement": "Migration", "setting": "[6]; Na2CO3 + NaHCO3, 25° C. and 1.0 MPa CO2", "result": 100.0, "unit": "% mol"}, {"measurement": "Migration", "setting": "[6]; Na2CO3 + NaHCO3, 80° C. and 1.0 MPa CO2", "result": 100.0, "unit": "% mol"}, {"measurement": "Migration", "setting": "[6]; NaHCO3, 25° C. and 0.1 MPa", "result": 100.0, "unit": "% mol"}, {"measurement": "Migration", "setting": "[6]; NaHCO3, 25° C. and 1.0 MPa CO2", "result": 100.0, "unit": "% mol"}, {"measurement": "Migration", "setting": "[6]; NaHCO3, 80° C. and 1.0 MPa CO2", "result": 100.0, "unit": "% mol"}, {"measurement": "Migration trend in the presence of alkalinity individually and together with pressure/temperature", "setting": "[6]; NaHCO3 or Na2CO3 + NaHCO3, 0.1 or 1.0 MPa, 25 or 80 °C", "result": 100, "unit": "%"}, {"measurement": "Migration", "setting": "[6]; Reference (heptol + 3.5% NaCl), no alkalinity", "result": 10.3, "unit": "% mol"}, {"measurement": "Migration", "setting": "[7]", "result": "24.4 %, mol"}]}
{"smiles": "O=C(O)C(C1CCCCC1)C1CCCCC1", "note": "[Dicyclohexylacetic Acid, dicyclohexylacetic acid]", "values": [{"measurement": "Migration to aqueous medium, approximate level over the salinity study", "setting": "[1]; 0-30% NaCl", "result": "around 20%"}, {"measurement": "Effect of the addition of salinity on migration", "setting": "[1]; 3.5-30% NaCl, 95% reliability", "result": "no significant effect"}, {"measurement": "Migration", "setting": "[1]; [8]", "result": "18.1 %, mol"}, {"measurement": "Migration", "setting": "[1]; [9]", "result": "19.9 %, mol"}, {"measurement": "Migration", "setting": "[1]; [10]", "result": "21.5 %, mol"}, {"measurement": "Migration", "setting": "[2]; Absence of ions, salinity 3.5%", "result": "22.1 %, mol"}, {"measurement": "Migration", "setting": "[2]; [11]", "result": "20.7 %, mol"}, {"measurement": "Migration", "setting": "[2]; [12]", "result": "19.6 %, mol"}, {"measurement": "Migration", "setting": "[2]; [13]", "result": "31.8 %, mol"}, {"measurement": "Migration", "setting": "[2]; [14]", "result": "15.8 %, mol"}, {"measurement": "Migration", "setting": "[2]; [15]", "result": "20.0 %, mol"}, {"measurement": "Migration", "setting": "[2]; [16]", "result": "21.5 %, mol"}, {"measurement": "Migration", "setting": "[2]; before addition of calcium", "result": "22 % (m·v^−1)"}, {"measurement": "Effect of strontium ions on migration to the aqueous phase", "setting": "[2]", "result": "no effect"}, {"measurement": "Migration", "setting": "[7]", "result": "22.0 %, mol"}]}
